This note sets out measurements from patent US20230391845A1, “GLP-1, GIP AND GLUCAGON RECEPTOR TRIPLE AGONISTS” (priority 2020, published 2023).

Where two headings read alike, the source gives them in different places. *1 amine or outer side, *2 acyl side, *3 side chain or, on linkers, in order; H or OH if unused. Where a SMILES comes first, the peptide text is derived from it. Side-chain parts run from the residue outwards. [ ]: non-standard residue; d: D form. The star is where a group is joined. C18 diacid = O=C(O)CCCCCCCCCCCCCCCCC(=O)*; γGlu = O=C(O)[C@H](CCC(=O)[*:2])N[*:1]; εLys = N[C@@H](CCCCN[*:1])C(=O)[*:2]; AEEA = NCCOCCOCC(=O)O; Aib = CC(C)(N)C(=O)O

The target of one series is T1, human GLP-1 receptor (Homo sapiens, UniProt P43220).
T1 construct: expressed in transfected cells; host or cells: BHK cells (parent line BHKTS13) containing CRE luciferase
T1 sequence (P43220 24-463): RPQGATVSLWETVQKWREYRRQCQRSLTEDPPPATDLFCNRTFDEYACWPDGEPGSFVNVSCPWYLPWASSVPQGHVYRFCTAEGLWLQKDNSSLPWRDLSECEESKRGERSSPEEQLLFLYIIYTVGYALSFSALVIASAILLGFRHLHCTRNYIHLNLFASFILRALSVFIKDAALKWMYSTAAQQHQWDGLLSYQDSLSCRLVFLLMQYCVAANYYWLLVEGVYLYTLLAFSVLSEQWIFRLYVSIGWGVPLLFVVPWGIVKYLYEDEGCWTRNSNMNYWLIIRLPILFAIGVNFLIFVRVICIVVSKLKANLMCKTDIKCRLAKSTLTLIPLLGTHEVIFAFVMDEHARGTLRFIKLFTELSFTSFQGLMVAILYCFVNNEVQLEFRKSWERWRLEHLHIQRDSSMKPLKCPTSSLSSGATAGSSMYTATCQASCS
Briefly: In vitro functional potency (CRE luciferase; whole cells), human GLP-1R. The settings on record: BHK CRE luc2P hGLP-1R whole cells; for EC50: read-out: hGLP-1R CRE Luc EC50. It counts as cell-based.

The target in another series is T2, human GIP receptor (Homo sapiens, UniProt P48546).
T2 construct: expressed in transfected cells; host or cells: BHK cells (parent line BHKTS13) containing CRE luciferase
T2 sequence (P48546 22-466): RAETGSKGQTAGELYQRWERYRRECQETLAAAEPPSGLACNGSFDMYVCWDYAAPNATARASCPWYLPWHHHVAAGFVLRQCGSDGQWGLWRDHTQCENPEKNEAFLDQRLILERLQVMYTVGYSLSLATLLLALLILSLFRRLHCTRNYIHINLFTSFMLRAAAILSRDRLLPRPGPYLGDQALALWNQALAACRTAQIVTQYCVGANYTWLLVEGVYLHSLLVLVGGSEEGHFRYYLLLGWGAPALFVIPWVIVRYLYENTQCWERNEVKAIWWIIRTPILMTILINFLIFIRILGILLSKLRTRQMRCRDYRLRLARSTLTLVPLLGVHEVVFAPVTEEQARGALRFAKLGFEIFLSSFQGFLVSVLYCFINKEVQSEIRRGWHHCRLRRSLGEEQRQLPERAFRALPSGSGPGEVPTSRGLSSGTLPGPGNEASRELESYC
Briefly: In vitro functional potency (CRE luciferase; whole cells), human GIPR. The settings on record: BHK CRE luc2P hGIPR whole cells, Table 1, position of substituent varied; for EC50: read-out: hGIPR CRE Luc EC50. The format is cell-based.

Another series addresses T3, human Gcg receptor (Homo sapiens, UniProt P47871).
T3 construct: expressed in transfected cells; host or cells: BHK cells (parent line BHKTS13) containing CRE luciferase
Briefly: In vitro functional potency (CRE luciferase; whole cells), human GcgR. The settings on record: BHK CRE luc2P hGcgR whole cells; for EC50: read-out: hGcgR CRE Luc EC50. The format is cell-based.

A short description of series [1]: Pharmacokinetic study in minipigs, i.v. administration. The settings on record: female, Göttingen, minipig, in vivo, iv. More on the design: species or system Göttingen minipigs. In a few lines: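 Terminal half-life, reported as harmonic mean, came from non-compartmental fits of plasma levels measured by antibody assay or LCMS over up to 14 days. Dosing was i.v., typically 1.5-2 nmol/kg, through implanted caval catheters in fasted female Göttingen minipigs of 16-35 kg.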

Where [2] appears, read: Table 1, position of substituent varied.

T3 sequence (P47871 26-477): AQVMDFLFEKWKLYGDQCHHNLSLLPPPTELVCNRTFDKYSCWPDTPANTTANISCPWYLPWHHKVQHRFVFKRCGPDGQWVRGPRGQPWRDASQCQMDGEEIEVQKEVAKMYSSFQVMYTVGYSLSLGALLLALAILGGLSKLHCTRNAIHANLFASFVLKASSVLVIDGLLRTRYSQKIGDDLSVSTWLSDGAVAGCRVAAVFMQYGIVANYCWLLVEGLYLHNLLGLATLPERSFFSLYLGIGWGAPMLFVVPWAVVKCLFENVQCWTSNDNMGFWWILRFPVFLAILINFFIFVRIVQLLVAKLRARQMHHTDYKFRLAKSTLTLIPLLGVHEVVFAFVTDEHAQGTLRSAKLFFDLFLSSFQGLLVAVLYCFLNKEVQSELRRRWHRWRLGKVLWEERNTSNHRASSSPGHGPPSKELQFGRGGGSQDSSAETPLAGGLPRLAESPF
Experimental for human GIP receptor: (§1) The purpose of this example is to test the functional activity, or potency, of the compounds in vitro at the human and mouse GLP-1, GIP, and Gcg receptors. The in vitro functional potency is the measure of target receptor activation in a whole cell assay.
(§2) In vitro functional potency was determined by measuring the response of the target receptor in a reporter gene assay in individual cell lines. The assay was performed in stably transfected BHK cell lines that expresses one of the following G-protein coupled receptors: human GLP-1 receptor, human GIP receptor, human Gcg receptor, mouse GLP-1 receptor, mouse GIP receptor, or mouse Gcg receptor; and where each cell line contains the DNA for the cAMP response element (CRE) coupled to a promoter and the gene for firefly luciferase (CRE luciferase). When the respective receptor is activated, it results in the production of cAMP, which in turn results in expression of the luciferase protein. When assay incubation is completed, luciferase substrate (luciferin) is added resulting in the enzymatic conversion of luciferin to oxyluciferin and producing bioluminescence. The luminescence is measured as the readout for the assay.
(§3) The cells lines used in these assays were BHK cells with BHKTS13 as a parent cell line. The cell lines were derived from a clone containing the CRE luciferase element and were established by further transfection with the respective receptor to obtain the relevant cell line.
(§4) The cells were cultured at 37° C. with 5% CO2 in Cell Culture Medium. They were aliquoted and stored in liquid nitrogen. The cells were kept in continuous culture and were seeded out the day before each assay.
(§5) GLP-1R and GcgR Cell Culture Medium consisted of DMEM medium with 10% FBS, 500 µg/mL G418, and 300 µg/mL hygromycin. GIPR Cell Culture Medium consisted of DMEM medium with 10% FBS, 400 µg/mL G418, and 300 µg/mL hygromycin. Assay Buffer consisted of DMEM w/o phenol red, 10 mM Hepes, 1× Glutamax, 1% ovalbumin, and 0.1% Pluronic F-68.
(§6) • 1) Cells were plated at 5000 cells/well and incubated overnight in the assay plate. • 2) Cells were washed once in DPBS. • 3) Stocks of the test compounds and reference compounds in concentrations ranging from 100-300 pM were diluted 1:150 in Assay Buffer.
(§7) The data from the microtiter plate reader was first regressed in an Excel in order to calculate the x-axis, log scale concentrations based on the individual test compound's stock concentration and the dilutions of the assay. […] The software performs a non-linear regression (log(agonist) vs response). A minimum of two replicates was measured for each sample. The reported values are averages of the replicates.
Experimental for human GLP-1 receptor: as §1, §2, §3, §4, §5, §6, §7
Experimental for human Gcg receptor: as §1, §2, §3, §4, §5, §6, §7

Consider `CC[C@H](C)[C@H](NC(=O)[C@H](CO)NC(=O)[C@H](Cc1ccc(O)cc1)NC(=O)[C@H](CC(=O)O)NC(=O)[C@H](CO)NC(=O)[C@@H](NC(=O)[C@H](Cc1ccccc1)NC(=O)[C@@H](NC(=O)CNC(=O)[C@H](CCC(N)=O)NC(=O)C(C)(C)NC(=O)[C@@H](N)Cc1ccc(O)cc1)[C@@H](C)O)[C@@H](C)O)C(=O)N[C@@H](Cc1ccc(O)cc1)C(=O)N[C@@H](CC(C)C)C(=O)N[C@@H](CC(=O)O)C(=O)N[C@@H](CCCCN)C(=O)N[C@@H](CCC(N)=O)C(=O)N[C@@H](C)C(=O)N[C@@H](C)C(=O)NC(C)(C)C(=O)N[C@@H](CCCCNC(=O)COCCOCCNC(=O)COCCOCCNC(=O)CC[C@H](NC(=O)CCCCCCCCCCCCCCCCC(=O)O)C(=O)O)C(=O)N[C@@H](Cc1ccccc1)C(=O)N[C@H](C(=O)N[C@@H](CC(N)=O)C(=O)N[C@@H](Cc1c[nH]c2ccccc12)C(=O)N[C@@H](CC(C)C)C(=O)N[C@@H](CC(C)C)C(=O)N[C@@H](C)C(=O)NCC(=O)NCC(=O)N1CCC[C@H]1C(=O)N[C@@H](CO)C(=O)N[C@@H](CO)C(=O)NCC(=O)N[C@@H](C)C(=O)N1CCC[C@H]1C(=O)N1CCC[C@H]1C(=O)N1CCC[C@H]1C(=O)N[C@@H](CO)C(N)=O)C(C)C` [Compound No. 3] (H-Y[Aib]QGTFTSDYSIYLDKQAA[Aib]K([AEEA-AEEA-γGlu-C18 diacid])FVNWLLAGGPSSGAPPPS-NH2; N-terminus assumed), for which the EC50 was found to be 0.0054 nM at human GLP-1 receptor (setting [2]), 0.0275 nM at human GIP receptor and 0.0347 nM at human Gcg receptor (setting [2]). Moreover, the half-life in series [1] is 33 h.
For `CC[C@H](C)[C@H](NC(=O)[C@H](CO)NC(=O)[C@H](Cc1ccc(O)cc1)NC(=O)[C@H](CC(=O)O)NC(=O)[C@H](CO)NC(=O)[C@@H](NC(=O)[C@H](Cc1ccccc1)NC(=O)[C@@H](NC(=O)CNC(=O)[C@H](CCC(N)=O)NC(=O)C(C)(C)NC(=O)[C@@H](N)Cc1ccc(O)cc1)[C@@H](C)O)[C@@H](C)O)C(=O)N[C@@H](Cc1ccc(O)cc1)C(=O)N[C@@H](CC(C)C)C(=O)N[C@@H](CC(=O)O)C(=O)N[C@@H](CCCCN)C(=O)N[C@@H](CCCCNC(=O)COCCOCCNC(=O)COCCOCCNC(=O)CC[C@H](NC(=O)CCCCCCCCCCCCCCCCC(=O)O)C(=O)O)C(=O)N[C@@H](C)C(=O)N[C@@H](C)C(=O)NC(C)(C)C(=O)N[C@@H](CCC(=O)O)C(=O)N[C@@H](Cc1ccccc1)C(=O)N[C@H](C(=O)N[C@@H](CC(N)=O)C(=O)N[C@@H](Cc1c[nH]c2ccccc12)C(=O)N[C@@H](CC(C)C)C(=O)N[C@@H](CC(C)C)C(=O)N[C@@H](C)C(=O)NCC(=O)NCC(=O)N1CCC[C@H]1C(=O)N[C@@H](CO)C(=O)N[C@@H](CO)C(=O)NCC(=O)N[C@@H](C)C(=O)N1CCC[C@H]1C(=O)N1CCC[C@H]1C(=O)N1CCC[C@H]1C(=O)N[C@@H](CO)C(N)=O)C(C)C` [Compound No. 2] (H-Y[Aib]QGTFTSDYSIYLDKK([AEEA-AEEA-γGlu-C18 diacid])AA[Aib]EFVNWLLAGGPSSGAPPPS-NH2; N-terminus assumed), in that order: 0.0071 nM, 0.0498 nM, 0.0476 nM and 45 h.
The matching figures for `CC[C@H](C)[C@H](NC(=O)[C@H](CO)NC(=O)[C@H](Cc1ccc(O)cc1)NC(=O)[C@H](CC(=O)O)NC(=O)[C@H](CO)NC(=O)[C@@H](NC(=O)[C@H](Cc1ccccc1)NC(=O)[C@@H](NC(=O)CNC(=O)[C@H](CCC(N)=O)NC(=O)C(C)(C)NC(=O)[C@@H](N)Cc1ccc(O)cc1)[C@@H](C)O)[C@@H](C)O)C(=O)N[C@@H](Cc1ccc(O)cc1)C(=O)N[C@@H](CC(C)C)C(=O)N[C@@H](CC(=O)O)C(=O)N[C@@H](CCCCNC(=O)COCCOCCNC(=O)COCCOCCNC(=O)CC[C@H](NC(=O)CCCCCCCCCCCCCCCCC(=O)O)C(=O)O)C(=O)N[C@@H](CCC(N)=O)C(=O)N[C@@H](C)C(=O)N[C@@H](C)C(=O)NC(C)(C)C(=O)N[C@@H](CCC(=O)O)C(=O)N[C@@H](Cc1ccccc1)C(=O)N[C@H](C(=O)N[C@@H](CC(N)=O)C(=O)N[C@@H](Cc1c[nH]c2ccccc12)C(=O)N[C@@H](CC(C)C)C(=O)N[C@@H](CC(C)C)C(=O)N[C@@H](C)C(=O)NCC(=O)NCC(=O)N1CCC[C@H]1C(=O)N[C@@H](CO)C(=O)N[C@@H](CO)C(=O)NCC(=O)N[C@@H](C)C(=O)N1CCC[C@H]1C(=O)N1CCC[C@H]1C(=O)N1CCC[C@H]1C(=O)N[C@@H](CO)C(N)=O)C(C)C` [Compound No. 1] (H-Y[Aib]QGTFTSDYSIYLDK([AEEA-AEEA-γGlu-C18 diacid])QAA[Aib]EFVNWLLAGGPSSGAPPPS-NH2; N-terminus assumed): 0.0086 nM, 0.0237 nM, 0.157 nM and 61 h.
`CC[C@H](C)[C@H](NC(=O)[C@H](CO)NC(=O)[C@H](Cc1ccc(O)cc1)NC(=O)[C@H](CC(=O)O)NC(=O)[C@H](CO)NC(=O)[C@@H](NC(=O)[C@H](Cc1ccccc1)NC(=O)[C@@H](NC(=O)CNC(=O)[C@H](CCC(N)=O)NC(=O)C(C)(C)NC(=O)[C@@H](N)Cc1ccc(O)cc1)[C@@H](C)O)[C@@H](C)O)C(=O)N[C@@H](Cc1ccc(O)cc1)C(=O)N[C@@H](CC(C)C)C(=O)N[C@@H](CC(=O)O)C(=O)N[C@@H](CCCCN)C(=O)N[C@@H](CCC(N)=O)C(=O)N[C@@H](C)C(=O)N[C@@H](C)C(=O)NC(C)(C)C(=O)N[C@@H](CCC(=O)O)C(=O)N[C@@H](Cc1ccccc1)C(=O)N[C@H](C(=O)N[C@@H](CC(N)=O)C(=O)N[C@@H](Cc1c[nH]c2ccccc12)C(=O)N[C@@H](CC(C)C)C(=O)N[C@@H](CC(C)C)C(=O)N[C@@H](C)C(=O)NCC(=O)NCC(=O)N1CCC[C@H]1C(=O)N[C@@H](CO)C(=O)N[C@@H](CO)C(=O)NCC(=O)N[C@@H](C)C(=O)N1CCC[C@H]1C(=O)N1CCC[C@H]1C(=O)N1CCC[C@H]1C(=O)N[C@@H](CO)C(=O)N[C@@H](CCCCNC(=O)COCCOCCNC(=O)COCCOCCNC(=O)CC[C@H](NC(=O)CCCCCCCCCCCCCCCCC(=O)O)C(=O)O)C(N)=O)C(C)C` [Compound No. 59, reference compound] (H-Y[Aib]QGTFTSDYSIYLDKQAA[Aib]EFVNWLLAGGPSSGAPPPSK([AEEA-AEEA-γGlu-C18 diacid])-NH2; N-terminus assumed): the “hGLP-1R CRE Luc EC50 (pM)” value on human GLP-1 receptor (setting [2]) is on record as “lower potency”. Besides, the “hGIPR CRE Luc EC50 (pM)” value on human GIP receptor was “lower potency”. In addition, the “hGcgR CRE Luc EC50 (pM)” value on human Gcg receptor (setting [2]) was “lower potency”.
As to `CC[C@H](C)[C@H](NC(=O)[C@H](CO)NC(=O)[C@H](Cc1ccc(O)cc1)NC(=O)[C@H](CC(=O)O)NC(=O)[C@H](CO)NC(=O)[C@@H](NC(=O)[C@H](Cc1ccccc1)NC(=O)[C@@H](NC(=O)CNC(=O)[C@H](Cc1c[nH]cn1)NC(=O)C(C)(C)NC(=O)[C@@H](N)Cc1c[nH]cn1)[C@@H](C)O)[C@@H](C)O)C(=O)N[C@@H](Cc1ccc(O)cc1)C(=O)N[C@@H](CC(C)C)C(=O)N[C@@H](CCC(=O)O)C(=O)N[C@@H](CCCCNC(=O)[C@@H](N)CCCCNC(=O)[C@@H](N)CCCCNC(=O)CC[C@H](NC(=O)CCCCCCCCCCCCCCCCC(=O)O)C(=O)O)C(=O)N[C@@H](CCCCN)C(=O)N[C@@H](Cc1ccc(O)cc1)C(=O)N[C@@H](C)C(=O)NC(C)(C)C(=O)N[C@@H](CCC(=O)O)C(=O)N[C@@H](Cc1ccccc1)C(=O)N[C@H](C(=O)N[C@@H](CCC(N)=O)C(=O)N[C@@H](Cc1c[nH]c2ccccc12)C(=O)N[C@@H](CC(C)C)C(=O)N[C@@H](CC(C)C)C(=O)N[C@@H](CCC(=O)O)C(=O)NCC(=O)NCC(=O)N1CCC[C@H]1C(=O)N[C@@H](CO)C(=O)N[C@@H](CO)C(=O)NCC(=O)N[C@@H](C)C(=O)N1CCC[C@H]1C(=O)N1CCC[C@H]1C(=O)N1CCC[C@H]1C(=O)N[C@@H](CO)C(N)=O)C(C)C` [Compound No. 38] (H-H[Aib]HGTFTSDYSIYLEK([εLys-εLys-γGlu-C18 diacid])KYA[Aib]EFVQWLLEGGPSSGAPPPS-NH2), the EC50 at human GLP-1 receptor (Table 2) is 0.0028 nM; on human Gcg receptor (Table 2) it was 0.0064 nM.

One may read the EC50 as the concentration that produces a half-maximal response. As usually defined, the half-life is how long it takes for the measured level to halve.
